Consider 9 molecules from patent US20250327043A1, “ALCOHOL ACYLTRANSFERASE AND A […], TISSUE, AND ORGANISM COMPRISING SAME” (YEDA RESEARCH AND DEVELOPMENT CO. LTD., priority 2022, published 2025).

Entries after “also recorded” stand apart in the source; their conditions may differ.

One series concerns HuAAT5. Kind of series: AAT enzyme assay with the purified HuAAT5 enzyme. The note with it: acyl donors acetyl-, iso-butyryl-, iso-valeryl- or hexanoyl-CoA, 30° C., 3 h, pH 7.4. Type of series: biochemical, Helichrysum umbraculigerum. As to the method: (§1) Selected AAT genes from Helichrysum were individually cloned into the pET28b vector and expressed in E. coli BL21 (DE3) cells. Bacterial cells were grown overnight in LB medium at 37° C., diluted in fresh LB 1:100, and re-incubated at 37° C. When cultures reached A600=0.6, protein expression was induced with 400 μM of isopropyl-1-thio-β-d-galactopyranoside (IPTG) overnight at 15° C. Bacterial cells were lysed by sonication in 50 mM Tris-HCl pH 8, 0.5 mM phenylmethylsulfonyl fluoride (PMSF, Sigma Aldrich) solution in isopropanol, 10% glycerol and protease inhibitor cocktail (Sigma Aldrich), and 1 mg ml-1 lysozyme (Sigma Aldrich). The whole-cell extract was either kept for functional activity or used for protein purification. Purification of proteins was performed on Ni-NTA agarose beads (Adar Biotech). The proteins were eluted with 200 mM imidazole (Fluka) in a buffer containing 50 mM NaH2PO4, pH 8, and 0.5 M NaCl. Protein concentration of the eluted fractions was measured with Pierce™ 660 nm protein assay reagent (Thermo Scientific).
(§2) Recombinant AAT assays with the enzyme solutions using different donor and acceptor substrates were performed by mixing 7 μl of the cannabinoid acceptors (OA, CBGA, or heliCBGA, 1 mg ml^−1) with 58 μl of a potassium phosphate buffer (100 mM, pH 7.4) and incubating the mixture at 30° C. for 10 min. Next, 5 μl of the acyl-CoA donors (butyryl-CoA, hexanoyl-CoA, iso-valeryl-CoA, or acetyl-CoA, 10 mM) and 30 μl of the enzyme solutions were added. The reactions were incubated at 30° C. for 3 h. To stop the reactions, 100 μl ethanol was added to each tube, vortexed for 10 s, centrifuged at maximum speed for 10 min, and then the supernatant was recovered and used for UPLC-qTOF analysis. The assay with the purified HuAAT5 enzyme was performed by mixing 2 μl of the cannabinoid acceptors (OA, CBGA, heliCBGA, CBDA, Δ^9-THCA or CBCA) with 2 μl of the acyl-CoA donors (butyryl-CoA, iso-butyryl-CoA, hexanoyl-CoA, iso-valeryl-CoA, or acetyl-CoA, 10 mM), 44 μl of a potassium phosphate buffer (100 mM, pH 7.4), and 2 μl of the purified HuAAT5 enzyme solution. The reactions were incubated at 30° C. for 3 h. To stop the reactions, 50 μl ethanol was added to each tube and the acylated compounds were extracted and analyzed as previously described.

The target in a further series is T1, TRPV3 ion channel (Homo sapiens, UniProt Q8NET8).
T1 sequence (Q8NET8 1-790): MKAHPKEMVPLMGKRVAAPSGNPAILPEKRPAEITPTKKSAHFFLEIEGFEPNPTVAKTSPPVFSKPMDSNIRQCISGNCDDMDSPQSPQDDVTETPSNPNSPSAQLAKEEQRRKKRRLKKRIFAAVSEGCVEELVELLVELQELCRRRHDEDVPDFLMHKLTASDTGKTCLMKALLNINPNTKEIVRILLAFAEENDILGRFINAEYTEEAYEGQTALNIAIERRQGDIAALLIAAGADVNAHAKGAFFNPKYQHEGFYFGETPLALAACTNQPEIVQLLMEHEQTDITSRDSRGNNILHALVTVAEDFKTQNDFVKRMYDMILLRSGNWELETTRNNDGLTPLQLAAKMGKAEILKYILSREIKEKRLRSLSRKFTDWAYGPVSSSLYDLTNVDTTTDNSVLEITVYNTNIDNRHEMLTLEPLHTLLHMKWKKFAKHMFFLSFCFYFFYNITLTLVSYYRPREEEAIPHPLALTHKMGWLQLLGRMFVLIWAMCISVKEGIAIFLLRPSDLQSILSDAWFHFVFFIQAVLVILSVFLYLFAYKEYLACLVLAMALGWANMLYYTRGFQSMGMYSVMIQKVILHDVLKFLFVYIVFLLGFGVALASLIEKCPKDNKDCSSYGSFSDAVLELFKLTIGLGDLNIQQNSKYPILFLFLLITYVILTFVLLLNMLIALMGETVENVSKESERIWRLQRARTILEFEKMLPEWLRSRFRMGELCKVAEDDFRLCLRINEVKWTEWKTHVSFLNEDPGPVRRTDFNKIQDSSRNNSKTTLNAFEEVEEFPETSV
The note with it: cited from earlier work.

The nature of series [1]: Activity of E. coli lysates containing recombinant HuAATs (AAT enzyme assay, UPLC-qTOF readout). The note with it: for acyltransferase activity of lysate towards the substrates: butyryl-CoA and hexanoyl-CoA as acyl donors, CBGA and heliCBGA as acceptors, 30° C., 3 h. Type of series: biochemical, Helichrysum umbraculigerum. The method, then: as §1
as §2, with “The assay with the purified HuAAT5 enzyme was performed by mixing 2 μl of the cannabinoid acceptors (OA, CBGA, heliCBGA, CBDA, Δ^9-THCA or CBCA) with 2 μl of the acyl-CoA donors (butyryl-CoA, iso-butyryl-CoA, hexanoyl-CoA, iso-valeryl-CoA, or acetyl-CoA, 10 mM), 44 μl of a potassium phosphate buffer (100 mM, pH 7.4), and 2 μl of the purified HuAAT5 enzyme solution. The reactions were incubated at 30° C. for 3 h.” left out

For `CCCCCc1cc2c(c(O)c1C(=O)O)[C@@H]1C=C(C)CC[C@H]1C(C)(C)O2` (relative stereo) [Δ^9-THCA, (−)-trans-Δ^9-tetrahydrocannabinolic acid], in the series with HuAAT5, the “acylation of the cannabinoid acceptor by purified HuAAT5” value (“acylation of the cannabinoid acceptor” below) is “inactive”.
Same read-out and setting: next, `CCCCCc1cc2c(c(O)c1C(=O)O)C=CC(C)(CCC=C(C)C)O2` (stereo not shown) [CBCA, cannabichromenic acid]: “inactive”.
Same read-out and setting: to `C=C(C)[C@@H]1CCC(C)=C[C@H]1c1c(O)cc(CCCCC)c(C(=O)O)c1O` [CBDA, cannabidiolic acid] belongs “successfully acylated”; to `CCCCCc1cc(O)c(C/C=C(\C)CCC=C(C)C)c(O)c1C(=O)O` [CBGA, cannabigerolic acid], “successfully acylated”.
On to `CCC(C)C(=O)Oc1cc(CCc2ccccc2)cc(O)c1CC=C(C)C` (stereo not shown) [O-methylbutyryl deprenylhelycannabigenol], for which the “affinity for the ionotropic TRPV3 ion channel” value on TRPV3 ion channel is “sub-micromolar”.
Consider `CCCCCc1cc(O)cc(O)c1C(=O)O` [OA, Olivetolic acid], for which, in the series with HuAAT5, the “acylation of the cannabinoid acceptor” value is “successfully acylated”.
For `CC(C)=CCCC(C)=CCc1c(O)cc(CCc2ccccc2)c(C(=O)O)c1O` [heliCBGA, helicannabigerolic acid], the “acylation of the cannabinoid acceptor” value with HuAAT5 was “successfully acylated”.

B1: HuAAT14: BAHD alcohol acyltransferase from Helichrysum umbraculigerum, recombinantly expressed in E. coli, SEQ ID NO: 30 (protein, listed as Helichrysum umbraculigerum)
chain: MGTIYQSPMIKSSTPKIIEDLKVIIHDTFTIFPPHETEKRSMFLSNIDQVLTFNVETVHFFAANPDFPPQVVAEKLKLALSKALVPYDFLAGRLKLNHESQRFEFDCNGAGARFVVGSSEFELGEIGDLVYPNPGFRQLVQKSYDNLELHEKPLCILQLTSFKCGGFALGVATNHATFDGLSFKTFLQNLGSLAADQPLAVDPCNDRHLLAARSPPKVQFDHPELLKIPTGTDIPNPTVFDCPESQLDFKIFNLTSDDIAHLKTKAKDGPGSTNAKITGFNVVAAHVWRCKALSSGSEYDPERVSTVLYAVDIRSRLNLPLSLAGNAVLSAYASAKCKEIEEGPLSRLVEMVTEGTNRMTGEYARSVIDWGEVNKGFPNGEFLISSWWRLGFADVEYPWGKPRYSCPVVYHRKDIILLFPDIVGADNNNEVNVLVALPGKEMEKFETLFHKFLA
B1: in series [1], the “acyltransferase activity of lysate towards the substrates” value was “showed activity towards all of these substrates; also recorded: acylated the cannabinoids with both acyl-CoAs”.

B2: HuAAT5: BAHD alcohol acyltransferase from Helichrysum umbraculigerum, recombinantly expressed in E. coli, SEQ ID NO: 19 (protein, listed as Helichrysum umbraculigerum)
chain: MPSSSSSPSSTADSVTIISKCTVYPHMKNSTPESLQLSVSDLPMLSCQYIQKGVLLSQPPPNHTNNIISHLKLSLSKTLSHFPPLAGRLSTDSHGHVSIICNDSGVEFVHSTANHLHTHQILPLNSDVHPCFKTFFAFDKTLSYAGHHQPIAAVQVTELADGLFIGCTVNHAVVDGTSFWNFFNTFAEITKGCQKVTNLPDFSRENVFISPVVLPLPSGGPSATFSGDEPLRERIIHFSRDAILKMKFRANNPLWRQPQNSDLDDTEIYGKVCNDINGKVNGAFKPKSEISSFQSLCGQLWRAVTRARKFNDPIKTTTFRMAVNCRHRLDPKVDKLYFGNLIQSIPTVASVGELLSHDLSWAANELHQNVVAHDNATVRRGVKDWENNPKLFPLGNFDGAMITMGSSPRFPMYNNDFGWGRPMAVRSGKANKFDGKISAFPGRDGDGSVDLEVVLAPETMACLERDHEFMQYVS
Regarding B2, the “amounts of products catalyzed, compared between the two active enzymes” value in series [1] (HuAAT5 versus HuAAT14) is given as “considerably greater amounts of products”. In series [1], the “acyltransferase activity of lysate towards the substrates” value is recorded as “showed activity towards all of these substrates; also recorded: acylated the cannabinoids with both acyl-CoAs”.
